{
  "source": "patent US20080131511A1",
  "about": "“Pharmaceutical Composition for Treatment of Tear and Salivary Fluid Drying” (Astellas Pharma, Inc., priority 2004, published 2008)",
  "key": {"[1]": {"system": "healthy male adult volunteers", "test": "Phase I study, single oral administration: saliva secretion", "format": "in vivo, human", "details": "for Increase of saliva secretion (number of subjects with the symptom): healthy male adult volunteers, 6 subjects", "method": "(§1) The compound A was orally administered once to healthy male adult volunteers, and saliva secretion action and pharmacokinetics were evaluated.\n(§2) Drug administration to the volunteers was carried out by a blind method.\n(§3) In order to observe the volunteers carefully, saliva quantity, sweating and pharmacokinetics (concentrations of unchanged compound A in plasma and urine) were periodically measured."}, "[2]": {"system": "healthy male adult volunteers", "test": "Phase I study, single oral administration: sweating", "format": "in vivo, human", "details": "for Sweating (number of subjects with the symptom): healthy male adult volunteers, 6 subjects", "method": "as §1, §2, §3"}, "[3]": {"test": "Phase I study, single oral administration: pharmacokinetics in plasma", "format": "in vivo, human", "details": "for Tmax / AUC / half-life / Cmax: male", "method": "as §1, §2, §3"}, "[4]": {"test": "Calculation of plasma concentration under stationary state (Css) and PT ratio from phase I data", "design": "species or system human", "details": "for concentration in plasma under stationary state (Css): calculated from AUC and T1/2 at 20 mg; for PT ratio (Cmax/Cmin): calculated", "from_the_text": "As described in the above, in order to increase secretion of salivary and tear fluid and to obtain effect of salivary gland and lacrimal gland cell growth, more sufficiently than usual, it is desirable to control drug release per unit hour of the compound A from a sustained release pharmaceutical preparation, and essentially, it is ideal to keep its effective concentration in human plasma for a predetermined period of time. The effective concentration of compound A in plasma under stationary state can be calculated using the AUC and disappearing half life obtained in the human clinical test, the aforementioned drug release per unit hour, distribution volume, disappearing rate constant and the like pharmacokinetic parameters.\nAn example of the method for calculating its concentration in plasma under stationary state (Css) is shown in the following.\nThey were 86.9, 172, 1380 and 2758 ng/ml. Though there is a possibility that it varies depending on the influences of specific difference, individual difference and the like various factors, when an example is cited, effective concentration of the compound A in plasma is 35 ng/ml in a lower case, based on the aforementioned calculation result and from the aforementioned valued calculated from Tables 7 and 8. This is preferably 50 ng/ml, more preferably 87 ng/ml, and further more preferably 170 ng/ml.\nIn addition, it is desirable to control a PT ratio (Cmax/Cmin) which is the ratio of maximum concentration of the compound A in plasma (Cmax) to its minimum concentration in plasma (Cmin). It is possible to calculate the PT ratio from Tmax and T1/2, and the calculation is carried out in the following manner.\nThis value means that the hour of T1/2 passed 5.5 times after Tmax, and (½)^5.5=1/45. Thus, the PT ratio becomes 45.\nAlso, when supposed as twice a day administration, (12−2)/4=2.5. In the same manner as in the above, (½)^2.5=1/5.7. Thus, the PT ratio is 5.7. In addition, when the same calculation is carried out based on the minimum value 3.4 h of T1/2 (showing the effect without perspiration),"}, "[5]": {"details": "phase I study, oral administration"}, "[6]": {"details": "human plasma, single oral 10 mg"}, "[7]": {"details": "human plasma, single oral 20 mg"}, "[8]": {"details": "human plasma, single oral 40 mg"}, "[9]": {"details": "human plasma, single oral 60 mg"}},
  "note": "Like-named read-outs stand apart in the source and are kept apart here.",
  "data": [
    {"compound": "C=C1CC2(CCN(C)CC2)O[C@H]1C", "note": "[compound A, (−)-(S)-2,8-dimethyl-3-methylene-1-oxa-8-azaspiro[4.5]decane]", "values": [
      {"measurement": "Increase of saliva secretion (number of subjects with the symptom)", "setting": "[1]; single oral 5 mg", "result": 0},
      {"measurement": "Increase of saliva secretion (number of subjects with the symptom)", "setting": "[1]; single oral 10 mg", "result": 2},
      {"measurement": "Increase of saliva secretion (number of subjects with the symptom)", "setting": "[1]; single oral 20 mg", "result": 2},
      {"measurement": "Increase of saliva secretion (number of subjects with the symptom)", "setting": "[1]; single oral 60 mg", "result": 5},
      {"measurement": "minimum dose by which increase of the salivary fluid secretion was observed", "setting": "[1]; [5]", "result": 10, "unit": "mg"},
      {"measurement": "Sweating (number of subjects with the symptom)", "setting": "[2]; single oral 5 mg", "result": 0},
      {"measurement": "Sweating (number of subjects with the symptom)", "setting": "[2]; single oral 10 mg", "result": 1},
      {"measurement": "Sweating (number of subjects with the symptom)", "setting": "[2]; single oral 20 mg", "result": 0},
      {"measurement": "Sweating (number of subjects with the symptom)", "setting": "[2]; single oral 40 mg", "result": 0},
      {"measurement": "Sweating (number of subjects with the symptom)", "setting": "[2]; single oral 60 mg", "result": 5},
      {"measurement": "dose at which a side effect was found", "setting": "[2]; human clinical test", "result": 60, "unit": "mg/individual"},
      {"measurement": "dose at which a side effect was not found", "setting": "[2]; human clinical test", "result": 40, "unit": "mg/individual"},
      {"measurement": "maximum dose (single administration) by which sweating was not observed but the beneficial effect was observed", "setting": "[2]; [5]", "result": 40, "unit": "mg"},
      {"measurement": "AUC0→∞", "setting": "[3]; human plasma, single oral 5 mg", "result": "117.6 ± 41.5", "unit": "ng/h/mL"},
      {"measurement": "AUC0→∞", "setting": "[3]; [6]", "result": "180.5 ± 77.6", "unit": "ng/h/mL"},
      {"measurement": "AUC0→∞", "setting": "[3]; [7]", "result": "410.1 ± 106.8", "unit": "ng/h/mL"},
      {"measurement": "AUC0→∞", "setting": "[3]; [8]", "result": "1,010.1 ± 323.2 ng/hr/ml"},
      {"measurement": "AUC0→∞", "setting": "[3]; [9]", "result": "1,482.3 ± 371.1 ng/hr/ml"},
      {"measurement": "Tmax", "setting": "[3]; plasma, oral, human test result which used general tablets containing the compound A", "result": "~2", "unit": "h"},
      {"measurement": "AUC", "setting": "[3]; plasma, oral, human, 20 mg administration", "result": 410, "unit": "ng·h/mL"},
      {"measurement": "half-life", "setting": "[3]; plasma, oral, human, 20 mg administration, read-out: T1/2 (converted)", "result": 203, "unit": "min"},
      {"measurement": "AUC", "setting": "[3]; plasma, human, 40 mg oral administration", "result": 1010, "unit": "ng·h/mL"},
      {"measurement": "Cmax", "setting": "[3]; plasma, human, oral 10 mg", "result": "35.3 ± 10.5", "unit": "ng/mL"},
      {"measurement": "Cmax", "setting": "[3]; plasma, human, oral 40 mg", "result": "151 ± 24.1", "unit": "ng/mL"},
      {"measurement": "Cmax", "setting": "[3]; human plasma, single oral 5 mg", "result": "19.8 ± 5.2", "unit": "ng/mL"},
      {"measurement": "Tmax", "setting": "[3]; human plasma, single oral 5 mg", "result": "1.5 ± 0.55", "unit": "h"},
      {"measurement": "half-life", "setting": "[3]; human plasma, single oral 5 mg, read-out: T½ (converted)", "result": "233 ± 48.6", "unit": "min"},
      {"measurement": "Tmax", "setting": "[3]; [6]", "result": "1.17 ± 0.41", "unit": "h"},
      {"measurement": "half-life", "setting": "[3]; human plasma, single oral 10 mg, read-out: T½ (converted)", "result": "205 ± 40.2", "unit": "min"},
      {"measurement": "Cmax", "setting": "[3]; [7]", "result": "68.1 ± 13", "unit": "ng/mL"},
      {"measurement": "Tmax", "setting": "[3]; [7]", "result": "2 ± 0.63", "unit": "h"},
      {"measurement": "half-life", "setting": "[3]; human plasma, single oral 20 mg, read-out: T½ (converted)", "result": "233 ± 40.2", "unit": "min"},
      {"measurement": "Tmax", "setting": "[3]; [8]", "result": "1.67 ± 0.82", "unit": "h"},
      {"measurement": "half-life", "setting": "[3]; human plasma, single oral 40 mg, read-out: T½ (converted)", "result": "227 ± 35.4", "unit": "min"},
      {"measurement": "Cmax", "setting": "[3]; [9]", "result": "266 ± 25.2", "unit": "ng/mL"},
      {"measurement": "Tmax", "setting": "[3]; [9]", "result": "1.6 ± 0.55", "unit": "h"},
      {"measurement": "half-life", "setting": "[3]; human plasma, single oral 60 mg, read-out: T½ (converted)", "result": "192 ± 47.4", "unit": "min"},
      {"measurement": "concentration in plasma under stationary state (Css)", "setting": "[4]; release rate R=4.2 mg/h", "result": 86.9, "unit": "ng/mL"},
      {"measurement": "concentration in plasma under stationary state (Css)", "setting": "[4]; release rate R=8.3 mg/h", "result": 172, "unit": "ng/mL"},
      {"measurement": "concentration in plasma under stationary state (Css)", "setting": "[4]; release rate R=66.7 mg/h", "result": 1380, "unit": "ng/mL"},
      {"measurement": "concentration in plasma under stationary state (Css)", "setting": "[4]; release rate R=133.3 mg/h", "result": 2758, "unit": "ng/mL"},
      {"measurement": "PT ratio (Cmax/Cmin)", "setting": "[4]; once a day administration, T1/2 3.4 h", "result": 90.5},
      {"measurement": "PT ratio (Cmax/Cmin)", "setting": "[4]; once a day administration, Tmax 2, T1/2 4", "result": 45},
      {"measurement": "PT ratio (Cmax/Cmin)", "setting": "[4]; twice a day administration, T1/2 3.4 h", "result": 7.5},
      {"measurement": "PT ratio (Cmax/Cmin)", "setting": "[4]; twice a day administration, Tmax 2, T1/2 4", "result": 5.7}
    ]}
  ]
}
